The target of one assay is T1, FGFR2 (Homo sapiens, UniProt P21802).
T1 construct: biochemical assays using purified intracellular domains of the respective isoforms; purchased Carna Bioscience 08-134
Put plainly: FGFR wild type enzyme assay (HTRF KinEASE-TK). It counts as biochemical. The settings on record: ATP 2 uM. On the procedure: (§1) Activity against FGFR wild type and mutant enzymes were determined in biochemical assays using purified intracellular domains of the respective isoforms using HTRF KinEASE-TK assay technology from CisBio, now PerkinElmer. (Catalogue number 62TK0PEC). Briefly test compounds were tested in 11 point 1:3 serial dilutions, typical final concentration range from 10,000 nM to 0.17 nM. Test compounds were dissolved in DMSO and added to assay plates using acoustic transfer. Enzyme was pre-incubated with test compound for 30 minutes and the assay was initiated by addition of ATP and TK-peptide substrate. After 60 minutes at room temperature the reaction was quenched with detection reagent and incubated for an additional 60 minutes at room temperature. The plates were read using a multimode reader and the emission ratio of 665 nm to 615 nm was determined. This ratio was converted to percent of control (POC). [1-(high control-sample signal)/(high control-low control)]*100. Wells without compound were used to determine high control values and wells without enzyme were used to determine low control values. The POC values were fit using a four-parameter logistic model and the value where the fit curve was equal to 50 POC was reported as the IC50 using the Signals Vitro Vivo software package (PerkinElmer). Final assay conditions were: 50 mM HEPES pH7.5, 10 mM MgCl2, 1 mM EDTA, 0.01% Brij-35, 2 mM MnCl2, 1 mM DTT, and 0.5 uM TK-peptide. The enzyme source, catalogue number, final enzyme concentration, and final ATP concentration can be found in the tables 1-2 below.
A general note: In TR-FRET formats the signal depends on donor and acceptor labels being close together.

In a further assay the target is T2, FGFR2 N549H (Homo sapiens, UniProt P21802, N549H).
T2 construct: biochemical assays using purified intracellular domains of the respective isoforms; purchased Carna Bioscience 08-532
T2 sequence (P21802 399-821 N549H limits assumed): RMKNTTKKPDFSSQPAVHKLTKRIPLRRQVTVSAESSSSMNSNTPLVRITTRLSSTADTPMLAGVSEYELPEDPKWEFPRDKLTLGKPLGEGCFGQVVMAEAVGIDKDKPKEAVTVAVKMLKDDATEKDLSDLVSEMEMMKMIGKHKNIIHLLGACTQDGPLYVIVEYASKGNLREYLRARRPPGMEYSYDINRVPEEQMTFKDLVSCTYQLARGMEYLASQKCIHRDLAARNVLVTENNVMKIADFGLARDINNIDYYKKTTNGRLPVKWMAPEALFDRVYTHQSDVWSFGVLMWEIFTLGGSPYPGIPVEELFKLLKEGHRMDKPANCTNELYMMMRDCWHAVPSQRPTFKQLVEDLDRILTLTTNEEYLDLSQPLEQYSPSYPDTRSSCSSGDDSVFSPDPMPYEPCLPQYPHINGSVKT
As to the kind of experiment: FGFR mutant enzyme assay (HTRF KinEASE-TK). It counts as biochemical. The settings on record: ATP 0.9 uM. On the procedure: as §1

The next assay has as its target T3, FGFR2 V564F (Homo sapiens, UniProt P21802, V564F).
T3 construct: biochemical assays using purified intracellular domains of the respective isoforms; purchased SignalChem Biotech F05-12FG
As to the kind of experiment: FGFR mutant enzyme assay (HTRF KinEASE-TK). The format is biochemical. The settings on record: ATP 1.5 uM. On the procedure:
as §1

Another assay concerns the target T4, FGFR2 V564I (Homo sapiens, UniProt P21802, V564I).
T4 construct: biochemical assays using purified intracellular domains of the respective isoforms; purchased Carna Bioscience 08-546
As to the kind of experiment: FGFR mutant enzyme assay (HTRF KinEASE-TK). The format is biochemical. The settings on record: ATP 0.4 uM. As for the experimental part: as §1

The target in the next assay is FGFR2-WT (Homo sapiens, UniProt P21802). Put plainly: Phosphorylated FGFR2-WT (pFGFR2-WT) cell assay, KATOIII cells. The format is cell-based. The settings on record: 1 hour incubation, phospho FGFR2 HTRF. On the procedure: KATOIII cells were grown in the appropriate growth medium, IMDM supplemented with 20% fetal bovine serum. Cells were seeded into a 384-well at 1×10^5 cells/25 μL/well. Cells were treated with compound using three-fold serial dilutions at final concentrations ranging from 10 μM to 0.5 nM. Compound was incubated on cells for 1 hour at 37° C., 5% CO2.
FGFR2-WT, sequence (P21802 430-767 limits assumed): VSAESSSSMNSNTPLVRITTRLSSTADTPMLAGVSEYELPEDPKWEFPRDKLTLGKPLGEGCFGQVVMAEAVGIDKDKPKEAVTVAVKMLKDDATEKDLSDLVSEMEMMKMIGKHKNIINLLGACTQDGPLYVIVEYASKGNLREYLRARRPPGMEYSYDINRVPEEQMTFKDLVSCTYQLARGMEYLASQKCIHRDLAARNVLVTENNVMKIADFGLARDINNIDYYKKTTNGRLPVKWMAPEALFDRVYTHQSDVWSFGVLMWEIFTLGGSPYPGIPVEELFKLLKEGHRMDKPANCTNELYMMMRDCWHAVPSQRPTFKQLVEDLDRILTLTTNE
Following the 1-hour incubation with compounds, cell lysates were prepared and phospho FGFR2 was measured using the HTRF Phospho-FGFR2 (TYR653/654) Detection Kits (CisBio, cat #64FGFR2Y6PEG). 8 μL of cell lysis buffer (4×) supplied with 1× Phospho and Total protein blocking reagent (CisBio, cat #64FGFR2Y6PEG, CisBio, cat #64KB1AAC) was then added to the wells. Cells were incubated with lysis buffer for 40 minutes at 4° C. under shaking conditions. Plates were centrifuged at 1500 rpm for 3 min and then 16 μL of cell lysate was transferred from the cell-culture plate to a small volume detection plate with the added premixed antibody solutions (4 μL) (CisBio, cat #64FGFR2Y6PEG). Plates were centrifuged at 1000 rpm for 1 min then incubated at 25° C. for 120 min, then overnight at 4° C. Plates were read on the En Vision multimode plate reader via HTRF dual wavelength detection. One hundred percent of control (POC) was determined using DMSO treated samples, and 0 POC was determined using the top concentration of a control compound. A 4-parameter logistic curve was fit to the POC values as a function of compound concentration to determine the IC50 value.

The mark [1] stands for this setting: compound table after the examples, read-out: Enz FGFR2.

The source of these data is US12351581B2, “Compounds for FGFR inhibition” (Cogent Biosciences, Inc., priority 2023, dated 2025).

Read-outs that look alike come from different tables or passages of the source.

T1 sequence (P21802 399-821 limits assumed): as the sequence (P21802 399-821 N549H limits assumed) above, with H151N counted along it
T3 sequence (P21802 399-821 V564F limits assumed): as the sequence (P21802 399-821 N549H limits assumed) above, with H151N, V166F counted along it
T4 sequence (P21802 399-821 V564I limits assumed): as the sequence (P21802 399-821 N549H limits assumed) above, with H151N, V166I counted along it

For `C[C@@H]1CN(c2ccc(-c3cc(O[C@H](C)c4ccc(F)cn4)c4c(C#N)cnn4c3)cn2)C[C@H](C)O1` [Compound 16, 6-(6-((2S,6R)-2,6-dimethylmorpholino)pyridin-3-yl)-4-((R)-1-(5-fluoropyridin-2-yl)ethoxy)pyrazolo[1,5-a]pyridine-3-carbonitrile], the IC50 at FGFR2 (Table 3, read-out: FGFR2 Enz) turned out to be 0.5 nM; on FGFR2 (setting [1]), 0.5 nM; on FGFR2 N549H, 0.3 nM; against FGFR2 V564F, 0.8 nM; on FGFR2 V564I, 1 nM; on FGFR2-WT it was 8 nM.
On to `Cc1nn(C2CCN(C)CC2)c(C)c1-c1cc(O[C@H](C)c2ccccn2)c2c(C#N)cnn2c1` [Compound 6, (R)-6-(3,5-dimethyl-1-(1-methylpiperidin-4-yl)-1H-pyrazol-4-yl)-4-(1-(pyridin-2-yl)ethoxy)pyrazolo[1,5-a]pyridine-3-carbonitrile], for which the IC50 stood at 1 nM at FGFR2 (Table 3, read-out: FGFR2 Enz); 1 nM at FGFR2 (setting [1]); 2.4 nM on FGFR2 N549H; 4 nM against FGFR2 V564F; 4.3 nM against FGFR2 V564I; 15 nM at FGFR2-WT.
Consider `Cc1c(-c2cc(O[C@H](C)c3ccc(F)cn3)c3c(C#N)cnn3c2)cnn1C1CCN(C(=O)[C@@H](N)C(C)C)CC1` [Compound 44, 6-(1-(1-(L-valyl)piperidin-4-yl)-5-methyl-1H-pyrazol-4-yl)-4-((R)-1-(5-fluoropyridin-2-yl)ethoxy)pyrazolo[1,5-a]pyridine-3-carbonitrile], for which the IC50 was 0.5 nM on FGFR2 (Table 3, read-out: FGFR2 Enz); 0.5 nM on FGFR2 (setting [1]); 0.4 nM at FGFR2 N549H; 1 nM against FGFR2 V564F; 1.5 nM at FGFR2 V564I; 8 nM against FGFR2-WT.
`Cc1c(-c2cc(O[C@H](C)c3ccc(F)cn3)c3c(C#N)cnn3c2)cnn1[C@H]1CC[C@H](O)CC1` [Compound 1, 4-[(1R)-1-(5-fluoro-2-pyridyl)ethoxy]-6-[1-(4-hydroxycyclohexyl)-5-methyl-pyrazol-4-yl]pyrazolo[1,5-a]pyridine-3-carbonitrile]: the IC50 at FGFR2 (Table 3, read-out: FGFR2 Enz) turned out to be 0.3 nM; on FGFR2 (setting [1]), 0.3 nM; against FGFR2 N549H, 0.4 nM; against FGFR2 V564F it was 1 nM; on FGFR2 V564I it was 1.4 nM; on FGFR2-WT it was 3.4 nM.
For the compound `Cc1c(-c2cc(O[C@H](C)c3ccc(F)cn3)c3c(C#N)cnn3c2)nnn1[C@H]1CC[C@H](O)CC1` [Compound 59, 4-((R)-1-(5-fluoropyridin-2-yl)ethoxy)-6-(1-((1r,4R)-4-hydroxycyclohexyl)-5-methyl-1H-1,2,3-triazol-4-yl)pyrazolo[1,5-a]pyridine-3-carbonitrile], the IC50 at FGFR2 (Table 3, read-out: FGFR2 Enz) is 0.5 nM; on FGFR2 (setting [1]), 0.5 nM; against FGFR2 N549H it was 1 nM; against FGFR2 V564F it was 3 nM; on FGFR2 V564I it was 3 nM; against FGFR2-WT it was 5.7 nM.
With `Cc1c(-c2cc(O[C@H](C)c3ncccc3F)c3c(C#N)cnn3c2)cnn1C1CCNCC1` [Compound 9, (R)-4-(1-(3-fluoropyridin-2-yl)ethoxy)-6-(5-methyl-1-(piperidin-4-yl)-1H-pyrazol-4-yl)pyrazolo[1,5-a]pyridine-3-carbonitrile], the IC50 on FGFR2 (Table 3, read-out: FGFR2 Enz) was found to be 0.3 nM; on FGFR2 (setting [1]), 0.3 nM; against FGFR2 N549H, 0.5 nM; against FGFR2 V564F, 1 nM; at FGFR2 V564I it was 1 nM; at FGFR2-WT, 7 nM.
`C[C@@H](Oc1cc(-c2cnn(C3CCN(C#N)CC3)c2N)cn2ncc(C#N)c12)c1ccc(F)cn1` [Compound 47, (R)-6-(5-amino-1-(1-cyanopiperidin-4-yl)-1H-pyrazol-4-yl)-4-(1-(5-fluoropyridin-2-yl)ethoxy)pyrazolo[1,5-a]pyridine-3-carbonitrile]: the IC50 on FGFR2 (Table 3, read-out: FGFR2 Enz) turned out to be 0.3 nM; on FGFR2 (setting [1]) it was 0.3 nM; against FGFR2 N549H it was 0.4 nM; on FGFR2 V564F, 1 nM; at FGFR2 V564I, 1 nM; on FGFR2-WT, 4 nM.
With `C[C@@H](Oc1cc(-c2nnn(C)c2N)cn2ncc(C#N)c12)c1ccc(F)cn1` [Compound 34, (R)-6-(5-amino-1-methyl-1H-1,2,3-triazol-4-yl)-4-(1-(5-fluoropyridin-2-yl)ethoxy)pyrazolo[1,5-a]pyridine-3-carbonitrile], the IC50 came out at 2.6 nM at FGFR2 (Table 3, read-out: FGFR2 Enz); 2.6 nM at FGFR2 (setting [1]); 3 nM against FGFR2 N549H; 10 nM at FGFR2 V564F; 12 nM on FGFR2 V564I; 17 nM against FGFR2-WT.
Turning to `Cc1c(-c2cc(O[C@H](C)c3ccc(F)cn3)c3c(C#N)cnn3c2)cnn1[C@H]1CCCN(C(=O)C2(O)CCC2)C1` [Compound 40, 4-((R)-1-(5-fluoropyridin-2-yl)ethoxy)-6-(1-((S)-1-(1-hydroxycyclobutane-1-carbonyl)piperidin-3-yl)-5-methyl-1H-pyrazol-4-yl)pyrazolo[1,5-a]pyridine-3-carbonitrile], the IC50 on FGFR2 (Table 3, read-out: FGFR2 Enz) amounted to 1 nM; at FGFR2 (setting [1]), 1 nM; on FGFR2 N549H, 0.6 nM; at FGFR2 V564F, 2 nM; at FGFR2 V564I, 3 nM; on FGFR2-WT, 6.7 nM.
Turning to `C[C@@H](Oc1cc(-c2cnn([C@H]3CC[C@H](O)CC3)c2N)cn2ncc(C#N)c12)c1ccc(F)cn1` [Compound 32, 6-(5-amino-1-((1r,4R)-4-hydroxycyclohexyl)-1H-pyrazol-4-yl)-4-((R)-1-(5-fluoropyridin-2-yl)ethoxy)pyrazolo[1,5-a]pyridine-3-carbonitrile], the IC50 on FGFR2 (Table 3, read-out: FGFR2 Enz) amounted to 0.4 nM; on FGFR2 (setting [1]) it was 0.4 nM; against FGFR2 N549H, 0.3 nM; against FGFR2 V564F it was 1 nM; on FGFR2 V564I it was 1 nM; against FGFR2-WT, 2.5 nM.
As for `Cc1c(-c2cc(O[C@H](C)c3cccnc3)c3c(C#N)cnn3c2)cnn1[C@H]1CC[C@H](O)CC1` [Compound 54, 6-(1-((1r,4R)-4-hydroxycyclohexyl)-5-methyl-1H-pyrazol-4-yl)-4-((R)-1-(pyridin-3-yl)ethoxy)pyrazolo[1,5-a]pyridine-3-carbonitrile], the IC50 on FGFR2 (Table 3, read-out: FGFR2 Enz) amounted to 0.4 nM; at FGFR2 (setting [1]) it was 0.4 nM; against FGFR2 N549H, 0.5 nM; on FGFR2 V564F, 1 nM; on FGFR2 V564I it was 1 nM; against FGFR2-WT, 12 nM.
As to `Cc1c(-c2cc(O[C@H](C)c3ccc(F)cn3)c3c(C#N)cnn3c2)cnn1C1CCN(C(=O)C2(N)CCC2)CC1` [Compound 43, (R)-6-(1-(1-(1-aminocyclobutane-1-carbonyl)piperidin-4-yl)-5-methyl-1H-pyrazol-4-yl)-4-(1-(5-fluoropyridin-2-yl)ethoxy)pyrazolo[1,5-a]pyridine-3-carbonitrile], the IC50 stood at 1 nM at FGFR2 (Table 3, read-out: FGFR2 Enz); 1 nM on FGFR2 (setting [1]); 1 nM against FGFR2 N549H; 3 nM at FGFR2 V564F; 3 nM at FGFR2 V564I; 9 nM against FGFR2-WT.
In the case of `Cc1c(-c2cc(O[C@H](C)c3ccc(F)cn3)c3c(C#N)cnn3c2)cnn1[C@H]1CCC[C@H](O)C1` [Compound 67, 4-((R)-1-(5-fluoropyridin-2-yl)ethoxy)-6-(1-((1S,3S)-3-hydroxycyclohexyl)-5-methyl-1H-pyrazol-4-yl)pyrazolo[1,5-a]pyridine-3-carbonitrile], the IC50 was 0.4 nM on FGFR2 (Table 3, read-out: FGFR2 Enz); 0.4 nM on FGFR2 (setting [1]); 0.4 nM against FGFR2 N549H; 1 nM against FGFR2 V564F; 1.4 nM against FGFR2 V564I; 4 nM on FGFR2-WT.
